We go through 25 compounds from US10544106B2, “Certain chemical entities, compositions, and methods” (NeuPharma, Inc., priority 2016, dated 2020).

In this assay the target is BTK (Homo sapiens (Human), UniProt Q06187). The experiment in a line: Z'-LYTE kinase inhibition assay against BTK. The format is biochemical. Particulars: for inhibition at 0.1 µM: compound at 100 nM, ATP concentration at Km; for IC50: series of concentrations, GraphPad Prism 5. On the procedure: Inhibitory activities of compounds against BTK, EGFR T790M, EGFR L858R, and EGFR L858R/T790M were measured using Z′-LYTE® Method from Life Technologies as briefly described in the following.
Test Compounds are screened in 1% DMSO (final) in the well. For 10 point titrations, 3-fold serial dilutions are conducted from the starting concentration. All ATP Solutions are diluted to a 4× working concentration in Kinase Buffer (50 mM HEPES pH 7.5, 0.01% BRIJ-35, 10 mM MgCl2, 1 mM EGTA). Peptide/Kinase Mixtures are diluted to a 2× working concentration in the appropriate Kinase Buffers as described below. • (i) Peptide/Kinase Mixtures for measurement of EGFR (ErbB1) L858R: • The 2×EGFR (ErbB1) L858R/Tyr 04 mixture is prepared in 50 mM HEPES pH 7.5, 0.01% BRIJ-35, 10 mM MgCl2, 4 mM MnCl2. 1 mM EGTA, 2 mM DTT. The final 10 μL Kinase Reaction consists of 0.2-1.68 ng EGFR (ErbB1) L858R and 2 μM Tyr 04 in 50 mM HEPES pH 7.5, 0.01% BRIJ-35, 10 mM MgCl2, 2 mM MnCl2, 1 mM EGTA, 1 mM DTT. After the 1 hour Kinase Reaction incubation, 5 μL of a 1:64 dilution of Development Reagent B is added. • (ii) Peptide/Kinase Mixtures for measurement of EGFR (ErbB1) T790M: The 2×EGFR (ErbB1) T790M/Tyr 04 mixture is prepared in 50 mM HEPES pH 6.5, 0.01% BRIJ-35, 10 mM MgCl2, 1 mM EGTA, 0.02% NaN3. The final 10 μL Kinase Reaction consists of 3.9-30.2 ng EGFR (ErbB1) T790M and 2 μM Tyr 04 in 50 mM HEPES pH 7.0, 0.01% BRIJ-35, 10 mM MgCl2, 1 mM EGTA, 0.01% NaN3. After the 1 hour Kinase Reaction incubation, 5 μL of a 1:64 dilution of Development Reagent B is added. • (iii) Peptide/Kinase Mixtures for measurement of EGFR (ErbB1) L858R/T790M: The 2×EGFR (ErbB1) T790M L858R/Tyr 04 mixture is prepared in 50 mM HEPES pH 6.5, 0.01% BRIJ-35, 10 mM MgCl2, 1 mM EGTA, 0.02% NaN3. The final 10 μL Kinase Reaction consists of 0.38-4.22 ng EGFR (ErbB1) T790M L858R and 2 μM Tyr 04 in 50 mM HEPES pH 7.0, 0.01% BRIJ-35, 10 mM MgCl2, 1 mM EGTA, 0.01% NaN3. After the 1 hour Kinase Reaction incubation, 5 μL of a 1:64 dilution of Development Reagent B is added. • (iv) Peptide/Kinase Mixtures for measurement of BTK: The 2×BTK/Tyr 01 mixture is prepared in 50 mM HEPES pH 7.5, 0.010/BRIJ-35, 10 mM MgCl2, 1 mM EGTA. The final 10 μL Kinase Reaction consists of 1.04-10.4 ng BTK and 2 μM Tyr 01 in 50 mM HEPES pH 7.5, 0.01% BRIJ-35, 10 mM MgCl2, 1 mM EGTA. After the 1 hour Kinase Reaction incubation, 5 μL of a 1:256 dilution of Development Reagent B is added.
Reaction starts by 30-second shaking of mixture consisting of 2.5 μL 4× test compound, 5 μL 2× kinase reaction mixture and 2.5 μL 4×ATP Solution on Bar-coded Corning, low volume NBS, black 384-well plate (Corning Cat. #3676). Then the mixture is incubated for 60-minute at room temperature for the kinase reaction, followed by addition of 5 μL of a 1:1024 dilution of development reagent A and 30-second plate shake. The mixture is then incubated for another 60-minute at room temperature for development reaction. Finally fluorescence is read by plate reader.
The Z′-LYTE assay was carried out with ATP concentration at Km. The scale utilized in Tables 2-6 is as follows: ++ more than 50% inhibition and + less than 50% inhibition.
To determine IC50 of a compound against a kinase, a series of concentrations of the compound were tested for the inhibition. IC50 was calculated by plotting the concentration of compound vs the percentage of inhibition in treated wells using GraphPad Prism 5. […] The scale utilized in Table 7 is as follows: ++ less than 100 nM and + greater than 100 nM.

Sequence of BTK (Q06187 whole entry): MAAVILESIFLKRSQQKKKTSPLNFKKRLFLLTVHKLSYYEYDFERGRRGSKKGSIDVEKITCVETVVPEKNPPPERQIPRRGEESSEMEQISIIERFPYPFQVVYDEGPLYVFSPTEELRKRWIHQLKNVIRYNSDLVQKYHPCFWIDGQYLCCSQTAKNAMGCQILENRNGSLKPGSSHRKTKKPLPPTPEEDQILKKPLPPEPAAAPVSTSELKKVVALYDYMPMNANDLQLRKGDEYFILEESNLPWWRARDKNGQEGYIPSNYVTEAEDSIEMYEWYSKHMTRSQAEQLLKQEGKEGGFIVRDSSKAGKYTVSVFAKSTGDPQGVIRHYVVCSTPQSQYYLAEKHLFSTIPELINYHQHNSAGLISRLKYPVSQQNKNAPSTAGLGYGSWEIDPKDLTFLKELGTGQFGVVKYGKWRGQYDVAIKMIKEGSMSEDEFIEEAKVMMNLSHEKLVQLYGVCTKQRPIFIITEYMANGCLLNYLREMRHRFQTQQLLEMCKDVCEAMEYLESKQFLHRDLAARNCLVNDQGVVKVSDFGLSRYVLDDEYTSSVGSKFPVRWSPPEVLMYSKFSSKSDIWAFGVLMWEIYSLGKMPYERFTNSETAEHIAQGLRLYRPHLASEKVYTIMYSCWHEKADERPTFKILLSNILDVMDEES

The compound `C=CC(=O)N1CCC(c2cc(-c3ccc(Oc4cc(C(F)(F)F)ccn4)cc3)n3cnccc23)C1` (stereo not shown) [C143, 1-(3-(7-(4-((4-(trifluoromethyl)pyridin-2-yl)oxy)phenyl)pyrrolo[1,2-c]pyrimidin-5-yl)pyrrolidin-1-yl)prop-2-en-1-one] came in with an inhibition at 0.1 µM below 50%.

Regarding `C=CC(=O)N1CCC(c2cc(-c3ccc(Oc4ccccc4)cc3)cc3cncnc23)C1` (stereo not shown) [C048, 1-(3-(6-(4-phenoxyphenyl)quinazolin-8-yl)pyrrolidin-1-yl)prop-2-en-1-one], the inhibition at 0.1 µM is above 50% and the IC50 is below 100 nM.

In turn, `C=CC(=O)N1CCC(c2cc(-c3ccc(C(=O)Nc4cccnc4)cc3)cc3cncnc23)C1` (stereo not shown) [C115, 4-(8-(1-acryloylpyrrolidin-3-yl)quinazolin-6-yl)-N-(pyridin-3-yl)benzamide] gave an inhibition at 0.1 µM below 50%.

The compound `C=CC(=O)Nc1cccc(-c2cc(-c3ccc(Oc4cc(C(F)(F)F)ccn4)cc3)c(N)c3cncnc23)c1` [C188, N-(3-(5-amino-6-(4-((4-(trifluoromethyl)pyridin-2-yl)oxy)phenyl)quinazolin-8-yl)phenyl)acrylamide] yielded an inhibition at 0.1 µM below 50% and a concentration for half-maximal inhibition (IC50) above 100 nM.

With `C=CC(=O)Nc1cccc(-c2cc(-c3ccc(Oc4ccccc4F)nc3)cc3cncnc23)c1` [C096, N-(3-(6-(6-(2-fluorophenoxy)pyridin-3-yl)quinazolin-8-yl)phenyl)acrylamide], the inhibition at 0.1 µM was above 50%.

The compound `C=CC(=O)N1CCC(n2c(-c3ccccc3)nc3cncnc32)C1` (stereo not shown) [C021, 1-(3-(8-phenyl-9H-purin-9-yl)pyrrolidin-1-yl)prop-2-en-1-one] came in with an inhibition at 0.1 µM below 50%.

With `C=CC(=O)N1CCC(c2cc(-c3ccc(C(=O)Nc4cc(C(F)(F)F)ccn4)cc3)cc3cncnc23)C1` (stereo not shown) [C125, 4-(8-(1-acryloylpyrrolidin-3-yl)quinazolin-6-yl)-N-(4-(trifluoromethyl)pyridin-2-yl)benzamide], the inhibition at 0.1 µM was above 50%.

Compound `C=CC(=O)Nc1cccc(-c2cc(-c3ccncc3)cc3cncnc23)c1` [C006, N-(3-(6-(pyridin-4-yl)quinazolin-8-yl)phenyl)acrylamide] gave an inhibition at 0.1 µM above 50% and an IC50 below 100 nM.

Turning to `C=CC(=O)N1CCC(c2cc(-c3ccc(C(=O)Nc4cc(C#N)ccn4)c(F)c3)n3cnccc23)C1` (stereo not shown) [C172, 4-(5-(1-acryloylpyrrolidin-3-yl)pyrrolo[1,2-c]pyrimidin-7-yl)-N-(4-cyanopyridin-2-yl)-2-fluorobenzamide], the inhibition at 0.1 µM is below 50%.

Take `C=CC(=O)Nc1cccc(-c2cc(-c3ccc(C(=O)Nc4cccc(C)c4)nc3)cc3cncnc23)c1` [C070, 5-(8-(3-acrylamidophenyl)quinazolin-6-yl)-N-(m-tolyl)picolinamide]: the inhibition at 0.1 µM was below 50%.

Regarding `C=CC(=O)N1CCCC(c2cc(-c3ccc(Oc4ccccc4)cc3)cc3c(N)ncnc23)C1` (stereo not shown) [C030, 1-(3-(4-amino-6-(4-phenoxyphenyl)quinazolin-8-yl)piperidin-1-yl)prop-2-en-1-one], the inhibition at 0.1 µM was below 50%.

In turn, `C=CC(=O)Nc1cccc(-c2cc(-c3ccc(C(=O)Nc4ccccc4)cc3F)cc3cncnc23)c1` [C089, 4-(8-(3-Acrylamidophenyl)quinazolin-6-yl)-3-fluoro-N-phenylbenzamide] gave an inhibition at 0.1 µM above 50%.

Regarding `C=CC(=O)N1CCCC(c2nc(-c3ccc(Oc4ncccc4F)c(OC)c3)n3c(N)nccc23)C1` (stereo not shown) [C232, 1-(3-(5-amino-3-(4-((3-fluoropyridin-2-yl)oxy)-3-methoxyphenyl)imidazo[1,5-c]pyrimidin-1-yl)piperidin-1-yl)prop-2-en-1-one], the IC50 is below 100 nM.

`C=CC(=O)Nc1cccc(-c2cc(-c3ccccn3)cc3cncnc23)c1` [C118, N-(3-(6-(pyridin-2-yl)quinazolin-8-yl)phenyl)acrylamide] yielded an inhibition at 0.1 µM above 50%.

`C=CC(=O)N1CCC(n2c(-c3ccccc3Cl)nc3cncnc32)C1` (stereo not shown) [C033, 1-(3-(8-(2-chlorophenyl)-9H-purin-9-yl)pyrrolidin-1-yl)prop-2-en-1-one] displayed an inhibition at 0.1 µM below 50%.

In turn, `C=CC(=O)Nc1cccc(-c2cc(-c3ccc(Oc4ccccc4)cc3)cc3cncnc23)c1` [C023, N-(3-(6-(4-phenoxyphenyl)quinazolin-8-yl)phenyl)acrylamide] yielded an inhibition at 0.1 µM above 50% and an IC50 below 100 nM.

In the case of `C=CC(=O)Nc1cccc(-c2cc(-c3ccc(Oc4cc(C(N)=O)ccn4)cc3F)cc3cncnc23)c1` [C194, 2-(4-(8-(3-acrylamidophenyl)quinazolin-6-yl)-3-fluorophenoxy)isonicotinamide], the inhibition at 0.1 µM is above 50% and the IC50 is below 100 nM.

With `C=CC(=O)Nc1cccc(-c2cc(-c3cccc(Nc4cccc(C(F)(F)F)c4)c3)cc3cncnc23)c1` [C011, N-(3-(6-(3-((3-(trifluoromethyl)phenyl)amino)phenyl)quinazolin-8-yl)phenyl)acrylamide], the inhibition at 0.1 µM was below 50%.

Compound `CC#CC(=O)N1CCC(c2nc(-c3ccc(Oc4ncccc4F)cc3)n3c(N)nccc23)C1` (stereo not shown) [C228, 1-(3-(5-amino-3-(4-((3-fluoropyridin-2-yl)oxy)phenyl)imidazo[1,5-c]pyrimidin-1-yl)pyrrolidin-1-yl)but-2-yn-1-one] registered an IC50 below 100 nM.

The compound `C=CC(=O)N1CCC(c2cc(-c3ccc(Oc4ccccn4)cc3F)cc3cncnc23)C1` (stereo not shown) [C114, 1-(3-(6-(2-fluoro-4-(pyridin-2-yloxy)phenyl)quinazolin-8-yl)pyrrolidin-1-yl)prop-2-en-1-one] returned an inhibition at 0.1 µM above 50%.

As for `C=CC(=O)Nc1cccc(-c2cc(-c3cncc(F)c3)cc3cnc(N)nc23)c1` [C111, N-(3-(2-amino-6-(5-fluoropyridin-3-yl)quinazolin-8-yl)phenyl)acrylamide], the inhibition at 0.1 µM was above 50% and the IC50 is below 100 nM.

As for `C=CC(=O)N1CCCC(c2nc(-c3ccc(Oc4ccccn4)cc3)n3c(N)nccc23)C1` (stereo not shown) [C243, 1-(3-(5-amino-3-(4-(pyridin-2-yloxy)phenyl)imidazo[1,5-c]pyrimidin-1-yl)piperidin-1-yl)prop-2-en-1-one], the IC50 is below 100 nM.

On to `C=CC(=O)N1CCC(c2cc(-c3ccc(C(=O)Nc4ccnnc4)cc3)cc3cncnc23)C1` (stereo not shown) [C147, 4-(8-(1-acryloylpyrrolidin-3-yl)quinazolin-6-yl)-N-(pyridazin-4-yl)benzamide], for which the inhibition at 0.1 µM was below 50%.

With `C=CC(=O)N1CCC(c2cc(-c3ccc(Oc4ccccn4)cc3F)c(N)c3cncnc23)C1` (stereo not shown) [C174, 1-(3-(5-amino-6-(2-fluoro-4-(pyridin-2-yloxy)phenyl)quinazolin-8-yl)pyrrolidin-1-yl)prop-2-en-1-one], the inhibition at 0.1 µM is below 50%.

Compound `C=CC(=O)N1CCC(c2ccc(-c3ccc(C(=O)Nc4ccccn4)cc3)c3cncnc23)C1` (stereo not shown) [C049, 4-(8-(1-acryloylpyrrolidin-3-yl)quinazolin-5-yl)-N-(pyridin-2-yl)benzamide] had an inhibition at 0.1 µM below 50%.
